Data as given in patent publication US9273040B2 (Merck Sharp & Dohme Corp., priority 2011, dated 2016).
Like-named read-outs stand apart in the source and are kept apart here.

What was measured:
[1] = target: T1, human Nav1.7 channels stably expressed in HEK 293 cells (Homo sapiens, UniProt Q15858); assay: PatchXpress 7000 automated patch-clamp, sodium current; assay type: cell-based; conditions: 22° C.
T1 construct: expressed in transfected cells
Excerpt: (§1) To measure state and use-dependent sodium channel inhibition, test compounds were further characterized in an automated PatchXpress® assay (Molecular Devices). Two voltage-clamp protocols were used. 1) Use-dependent protocol: Cells were held at a membrane potential 20 mV negative to the potential at which ˜50% of the channels are inactivated (V0.5 inact). A train of 30 ms depolarizations to −20 mV was applied to the cells expressing Nav1.7 at a frequency of 10 Hz. […] Data was collected in the absence and presence of drug, and after drug washout. 2) A double-pulse protocol was used to measure inactivated state block. Cells were held at a potential 20 mV negative to V0.5 inact. A 8000 ms pre-pulse 7 mV positive to V0.5 inact was given followed by a hyperpolarizing 2 ms pulse to −120 mV and a 20 ms test pulse to −20 mV. Protocol was applied to cells in the absence, presence of compound and after washout. The temperature of PatchXpress instruments was maintained at 22° C. The following recording solutions were used. Internal solution (mM): 30 CsCl, 5 HEPES, 10 EGTA, 120 CsF, 5 NaF, 2MgCl2, pH=7.3 with CsOH, 324 mosmo. External solution (mM): 120 NMDG, 40 NaCl, 1 KCl, 0.5 MgCl2, 5 HEPES, 2.7 CaCl2, pH=7.5 with NMDG-OH.
(§2) For all electrophysiology experiments, offline analysis was used to correct for current rundown and to determine percent inhibition as a function of drug concentration. IC50 values were determined by fitting to the Hill equation.

[2] = target: T2, human Nav1.5 channels stably expressed in HEK 293 cells (Homo sapiens, UniProt Q14524); assay: as above; assay type: cell-based; conditions: selectivity over Nav1.5
T2 construct: expressed in transfected cells
T2 sequence (Q14524 whole entry): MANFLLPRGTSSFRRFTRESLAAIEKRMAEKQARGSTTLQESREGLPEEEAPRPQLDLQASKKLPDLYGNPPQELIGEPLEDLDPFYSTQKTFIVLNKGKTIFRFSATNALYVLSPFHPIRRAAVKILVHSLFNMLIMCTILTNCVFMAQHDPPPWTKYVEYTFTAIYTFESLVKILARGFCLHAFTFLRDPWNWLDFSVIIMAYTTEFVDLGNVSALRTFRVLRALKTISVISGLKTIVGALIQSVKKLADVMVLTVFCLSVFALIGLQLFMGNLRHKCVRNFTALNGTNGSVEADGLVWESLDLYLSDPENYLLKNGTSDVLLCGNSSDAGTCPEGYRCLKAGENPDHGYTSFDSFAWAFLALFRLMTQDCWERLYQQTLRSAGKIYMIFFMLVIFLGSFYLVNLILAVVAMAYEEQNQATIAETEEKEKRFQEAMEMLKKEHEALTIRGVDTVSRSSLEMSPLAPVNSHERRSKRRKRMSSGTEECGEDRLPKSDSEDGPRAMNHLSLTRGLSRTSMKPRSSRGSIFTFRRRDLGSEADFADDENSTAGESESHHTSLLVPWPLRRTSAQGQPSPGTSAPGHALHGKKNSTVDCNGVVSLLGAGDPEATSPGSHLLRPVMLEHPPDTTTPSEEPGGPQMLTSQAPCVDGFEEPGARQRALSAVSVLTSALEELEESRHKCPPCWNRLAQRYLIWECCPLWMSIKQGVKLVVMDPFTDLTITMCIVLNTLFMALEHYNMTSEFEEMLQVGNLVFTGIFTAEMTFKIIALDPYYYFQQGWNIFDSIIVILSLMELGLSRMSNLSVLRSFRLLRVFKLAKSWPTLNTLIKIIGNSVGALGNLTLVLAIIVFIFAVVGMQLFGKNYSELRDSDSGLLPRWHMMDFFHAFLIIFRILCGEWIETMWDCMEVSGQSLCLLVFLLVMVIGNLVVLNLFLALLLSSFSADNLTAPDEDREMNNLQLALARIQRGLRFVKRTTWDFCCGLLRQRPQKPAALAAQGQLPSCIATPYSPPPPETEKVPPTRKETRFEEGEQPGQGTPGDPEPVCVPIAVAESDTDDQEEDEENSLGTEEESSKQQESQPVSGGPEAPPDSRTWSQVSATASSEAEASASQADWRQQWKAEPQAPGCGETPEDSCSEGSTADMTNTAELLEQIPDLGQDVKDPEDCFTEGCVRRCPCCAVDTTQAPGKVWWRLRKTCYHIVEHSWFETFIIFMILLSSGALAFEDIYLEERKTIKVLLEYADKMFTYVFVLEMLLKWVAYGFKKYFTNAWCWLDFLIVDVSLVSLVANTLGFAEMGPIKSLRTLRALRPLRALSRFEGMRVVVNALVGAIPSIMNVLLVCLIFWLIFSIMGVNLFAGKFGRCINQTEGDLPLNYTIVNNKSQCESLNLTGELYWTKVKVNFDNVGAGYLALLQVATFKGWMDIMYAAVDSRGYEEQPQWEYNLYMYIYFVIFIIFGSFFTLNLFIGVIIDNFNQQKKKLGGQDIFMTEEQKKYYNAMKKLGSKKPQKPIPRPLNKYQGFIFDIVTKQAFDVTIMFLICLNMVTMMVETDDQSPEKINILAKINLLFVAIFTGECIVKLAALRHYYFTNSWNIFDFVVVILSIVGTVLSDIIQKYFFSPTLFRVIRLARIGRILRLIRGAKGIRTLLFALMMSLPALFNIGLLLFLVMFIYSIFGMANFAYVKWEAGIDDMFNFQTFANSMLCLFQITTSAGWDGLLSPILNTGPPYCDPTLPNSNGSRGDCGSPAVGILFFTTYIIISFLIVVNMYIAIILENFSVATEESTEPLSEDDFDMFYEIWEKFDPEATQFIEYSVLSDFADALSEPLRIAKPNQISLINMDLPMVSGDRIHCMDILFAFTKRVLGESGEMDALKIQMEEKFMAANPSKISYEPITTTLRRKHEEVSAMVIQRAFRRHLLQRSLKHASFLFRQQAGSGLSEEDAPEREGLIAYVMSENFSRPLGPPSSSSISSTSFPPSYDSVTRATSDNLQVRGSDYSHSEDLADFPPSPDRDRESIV
Excerpt: as §1, §2

[3] = read-out: potency for the Nav 1.7 sodium ion channel (as measured by PatchXpress)

T1 sequence (Q15858 whole entry): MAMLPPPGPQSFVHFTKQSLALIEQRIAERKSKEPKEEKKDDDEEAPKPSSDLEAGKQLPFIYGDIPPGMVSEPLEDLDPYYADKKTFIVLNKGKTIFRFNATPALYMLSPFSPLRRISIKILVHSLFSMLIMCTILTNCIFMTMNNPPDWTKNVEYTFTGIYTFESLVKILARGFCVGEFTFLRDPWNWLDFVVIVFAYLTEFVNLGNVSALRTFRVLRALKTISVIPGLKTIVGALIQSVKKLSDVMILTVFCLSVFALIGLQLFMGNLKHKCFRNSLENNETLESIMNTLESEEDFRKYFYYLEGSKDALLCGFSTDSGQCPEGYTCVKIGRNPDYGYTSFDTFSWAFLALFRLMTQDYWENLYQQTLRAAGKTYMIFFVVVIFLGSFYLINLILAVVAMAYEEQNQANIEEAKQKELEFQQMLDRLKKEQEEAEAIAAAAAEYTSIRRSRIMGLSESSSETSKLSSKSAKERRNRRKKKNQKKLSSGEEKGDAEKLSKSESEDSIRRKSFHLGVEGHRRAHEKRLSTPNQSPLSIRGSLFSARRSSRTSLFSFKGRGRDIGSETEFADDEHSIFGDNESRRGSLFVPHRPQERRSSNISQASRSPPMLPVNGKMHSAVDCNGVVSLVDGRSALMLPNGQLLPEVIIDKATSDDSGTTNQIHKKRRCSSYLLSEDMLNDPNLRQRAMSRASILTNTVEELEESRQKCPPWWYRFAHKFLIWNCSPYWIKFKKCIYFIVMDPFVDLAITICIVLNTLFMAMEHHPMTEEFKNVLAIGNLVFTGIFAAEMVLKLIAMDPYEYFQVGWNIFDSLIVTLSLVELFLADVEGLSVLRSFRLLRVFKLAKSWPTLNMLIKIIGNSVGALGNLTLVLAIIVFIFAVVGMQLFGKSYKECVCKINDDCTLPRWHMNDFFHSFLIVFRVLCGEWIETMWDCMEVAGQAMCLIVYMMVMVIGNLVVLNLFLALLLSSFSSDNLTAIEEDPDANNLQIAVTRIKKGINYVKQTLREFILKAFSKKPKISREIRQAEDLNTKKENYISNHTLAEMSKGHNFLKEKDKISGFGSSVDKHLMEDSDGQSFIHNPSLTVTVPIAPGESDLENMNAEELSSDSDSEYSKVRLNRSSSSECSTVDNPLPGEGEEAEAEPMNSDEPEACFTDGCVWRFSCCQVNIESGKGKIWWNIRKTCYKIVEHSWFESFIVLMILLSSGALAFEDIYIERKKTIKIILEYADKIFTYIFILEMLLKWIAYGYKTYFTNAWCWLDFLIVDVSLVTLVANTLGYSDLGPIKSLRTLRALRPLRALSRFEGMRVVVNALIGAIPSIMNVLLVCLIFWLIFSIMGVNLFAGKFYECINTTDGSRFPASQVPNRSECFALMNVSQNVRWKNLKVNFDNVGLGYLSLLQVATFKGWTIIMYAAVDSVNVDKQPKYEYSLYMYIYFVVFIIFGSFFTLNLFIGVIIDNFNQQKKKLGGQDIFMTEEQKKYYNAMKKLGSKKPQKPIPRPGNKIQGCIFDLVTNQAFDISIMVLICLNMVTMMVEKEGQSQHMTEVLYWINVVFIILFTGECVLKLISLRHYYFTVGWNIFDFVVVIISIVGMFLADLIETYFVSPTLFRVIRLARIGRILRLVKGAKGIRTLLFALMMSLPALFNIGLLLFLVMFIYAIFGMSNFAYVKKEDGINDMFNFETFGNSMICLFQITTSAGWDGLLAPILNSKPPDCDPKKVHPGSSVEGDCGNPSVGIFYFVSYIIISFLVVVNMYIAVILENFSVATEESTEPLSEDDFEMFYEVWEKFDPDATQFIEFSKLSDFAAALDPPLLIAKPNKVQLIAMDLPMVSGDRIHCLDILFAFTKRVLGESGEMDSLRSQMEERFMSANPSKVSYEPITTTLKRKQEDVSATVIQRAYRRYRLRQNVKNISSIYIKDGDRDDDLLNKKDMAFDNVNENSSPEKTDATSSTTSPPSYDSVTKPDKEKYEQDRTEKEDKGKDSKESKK

O=c1oc2cc(S(=O)(=O)Nc3ncns3)c(F)cc2n1Cc1cccc2c1C1CC1C=C2 (centres unmarked) [Compound 11-13, 3-(1a,7b-dihydro-1H-cyclopropa[a]naphthalen-7-ylmethyl)-5-fluoro-2-oxo-N-1,2,4-thiadiazol-5-yl-2,3-dihydro-1,3-benzoxazole-6-sulfonamide]
IC50 [1, 3]: 49 nM
ratio of Nav 1.5:Nav 1.7 potency, determined by PatchXpress measurement [2]: 50

CC(c1cccc(-c2ccnn2C)c1)n1c(=O)oc2cc(S(=O)(=O)Nc3ncns3)c(F)cc21 (centres unmarked) [Compound 13-10, 5-fluoro-3-{1-[3-(1-methyl-1H-pyrazol-5-yl)phenyl]ethyl}-2-oxo-N-1,2,4-thiadiazol-5-yl-2,3-dihydro-1,3-benzoxazole-6-sulfonamide]
IC50 [1, 3]: 63 nM
ratio of Nav 1.5:Nav 1.7 potency, determined by PatchXpress measurement [2]: 256

O=c1oc2cc(S(=O)(=O)Nc3ncns3)c(F)cc2n1[C@H](CO)c1ccccc1 [Compound 13-12, 5-fluoro-3-[(1S)-2-hydroxy-1-phenylethyl]-2-oxo-N-1,2,4-thiadiazol-5-yl-2,3-dihydro-1,3-benzoxazole-6-sulfonamide]
IC50 [1, 3]: 422 nM
ratio of Nav 1.5:Nav 1.7 potency, determined by PatchXpress measurement [2]: > 71

C[C@H](c1cccc2ccncc12)n1c(=O)oc2cc(S(=O)(=O)Nc3ncns3)ccc21 [Compound 14-7, (R)-3-(1-(isoquinolin-8-yl)ethyl)-2-oxo-N-(1,2,4-thiadiazol-5-yl)-2,3-dihydrobenzo[d]oxazole-6-sulfonamide]
IC50 [1, 3]: 40 nM
ratio of Nav 1.5:Nav 1.7 potency, determined by PatchXpress measurement [2]: 749

C[C@H](c1cccc2ccncc12)n1c(=O)oc2cc(S(=O)(=O)Nc3ncns3)c(F)cc21 [Compound 14-8, 5-fluoro-3-[(1R)-1-isoquinolin-8-ylethyl]-2-oxo-N-1,2,4-thiadiazol-5-yl-2,3-dihydro-1,3-benzoxazole-6-sulfonamid]
IC50 [1, 3]: 71 nM
ratio of Nav 1.5:Nav 1.7 potency, determined by PatchXpress measurement [2]: 114

C[C@@H](c1cccc2ccncc12)n1c(=O)oc2cc(S(=O)(=O)Nc3ncns3)ccc21 [Compound 14-9, 3-[(1S)-1-isoquinolin-8-ylethyl]-2-oxo-N-1,2,4-thiadiazol-5-yl-2,3-dihydro-1,3-benzoxazole-6-sulfonamide]
IC50 [1, 3]: 808 nM
ratio of Nav 1.5:Nav 1.7 potency, determined by PatchXpress measurement [2]: 37

C[C@@H](c1cccc2ccncc12)n1c(=O)oc2cc(S(=O)(=O)Nc3ncns3)c(F)cc21 [Compound 14-10, 5-fluoro-3-[(1S)-1-isoquinolin-8-ylethyl]-2-oxo-N-1,2,4-thiadiazol-5-yl-2,3-dihydro-1,3-benzoxazole-6-sulfonamide]
IC50 [1, 3]: 779 nM
ratio of Nav 1.5:Nav 1.7 potency, determined by PatchXpress measurement [2]: 27

C[C@H](c1cccc2cncn12)n1c(=O)oc2cc(S(=O)(=O)Nc3ncns3)c(F)cc21 [Compound 15-3, (R)-5-Fluoro-3-(1-(imidazo[1,5-a]pyridin-5-yl)ethyl)-2-oxo-N-(1,2,4-thiadiazol-5-yl)-2,3-dihydrobenzo[d]oxazole-6-sulfonamide]
IC50 [1, 3]: 134 nM
ratio of Nav 1.5:Nav 1.7 potency, determined by PatchXpress measurement [2]: 122

C[C@@H](c1cccc2cncn12)n1c(=O)oc2cc(S(=O)(=O)Nc3ncns3)c(F)cc21 [Compound 15-4, 5-fluoro-3-[(1S)-1-imidazo[1,5-a]pyridin-5-ylethyl]-2-oxo-N-1,2,4-thiadiazol-5-yl-2,3-dihydro-1,3-benzoxazole-6-sulfonamide]
IC50 [1, 3]: 235 nM
ratio of Nav 1.5:Nav 1.7 potency, determined by PatchXpress measurement [2]: 60

C[C@H](c1ccccc1I)n1c(=O)oc2cc(S(=O)(=O)Nc3ncns3)c(F)cc21 [Compound 16-3, (R)-5-Fluoro-3-(1-(2-iodophenyl)ethyl)-2-oxo-N-(1,2,4-thiadiazol-5-yl)-2,3-dihydrobenzo[d]oxazole-6-sulfonamide]
IC50 [1, 3]: 69 nM
ratio of Nav 1.5:Nav 1.7 potency, determined by PatchXpress measurement [2]: 272

C[C@H](c1ccccc1C1=CCNCC1)n1c(=O)oc2cc(S(=O)(=O)Nc3ncns3)c(F)cc21 [Compound 16-4, (R)-5-Fluoro-2-oxo-3-(1-(2-(1,2,3,6-tetrahydropyridin-4-yl)phenyl)ethyl)-N-(1,2,4-thiadiazol-5-yl)-2,3-dihydrobenzo[d]oxazole-6-sulfonamide]
IC50 ([1]; potency for the Nav 1.7 sodium ion channel (as measured by PatchXpress)): 28 nM
ratio of Nav 1.5:Nav 1.7 potency, determined by PatchXpress measurement [2]: 296

C[C@H](c1ccccc1C1=CCCNC1)n1c(=O)oc2cc(S(=O)(=O)Nc3ncns3)c(F)cc21 [Compound 16-5, 5-fluoro-2-oxo-3-{(1R)-1-[2-(1,2,5,6-tetrahydropyridin-3-yl)phenyl]ethyl}-N-1,2,4-thiadiazol-5-yl-2,3-dihydro-1,3-benzoxazole-6-sulfonamide]
IC50 [1, 3]: 46 nM
ratio of Nav 1.5:Nav 1.7 potency, determined by PatchXpress measurement [2]: 646

C[C@H](c1ccccc1C1=CCNCCC1)n1c(=O)oc2cc(S(=O)(=O)Nc3ncns3)c(F)cc21 [Compound 16-6, 5-fluoro-2-oxo-3-{(1R)-1-[2-(2,5,6,7-tetrahydro-1H-azepin-4-yl)phenyl]ethyl}-N-1,2,4-thiadiazol-5-yl-2,3-dihydro-1,3-benzoxazole-6-sulfonamide]
IC50 [1, 3]: 18 nM
ratio of Nav 1.5:Nav 1.7 potency, determined by PatchXpress measurement [2]: 1692

C[C@H](c1ccccc1C#CC1(N)CC1)n1c(=O)oc2cc(S(=O)(=O)Nc3ncns3)c(F)cc21 [Compound 17-1, (R)-3-(1-(2-((1-aminocyclopropyl)ethynyl)phenyl)ethyl)-5-fluoro-2-oxo-N-(1,2,4-thiadiazol-5-yl)-2,3-dihydrobenzo[d]oxazole-6-sulfonamide]
IC50 [1, 3]: 96 nM
ratio of Nav 1.5:Nav 1.7 potency, determined by PatchXpress measurement [2]: 313

C[C@H](c1ccccc1C#CCN1CCOCC1)n1c(=O)oc2cc(S(=O)(=O)Nc3ncns3)c(F)cc21 [Compound 17-2, 5-fluoro-3-{(1R)-1-[2-(3-morpholin-4-ylprop-1-yn-1-yl)phenyl]ethyl}-2-oxo-N-1,2,4-thiadiazol-5-yl-2,3-dihydro-1,3-benzoxazole-6-sulfonamide]
IC50 [1, 3]: 332 nM
ratio of Nav 1.5:Nav 1.7 potency, determined by PatchXpress measurement [2]: 90

C[C@H](c1ccccc1C#CC1(O)CCCC1)n1c(=O)oc2cc(S(=O)(=O)Nc3ncns3)c(F)cc21 [Compound 17-3, 5-fluoro-3-[(1R)-1-{2-[(1-hydroxycyclopentyl)ethynyl]phenyl}ethyl]-2-oxo-N-1,2,4-thiadiazol-5-yl-2,3-dihydro-1,3-benzoxazole-6-sulfonamide]
IC50 [1, 3]: 172 nM
ratio of Nav 1.5:Nav 1.7 potency, determined by PatchXpress measurement [2]: 97

C[C@H](c1ccccc1C#CCCO)n1c(=O)oc2cc(S(=O)(=O)Nc3ncns3)c(F)cc21 [Compound 17-4, 5-fluoro-3-{(1R)-1-[2-(4-hydroxybut-1-yn-1-yl)phenyl]ethyl}-2-oxo-N-1,2,4-thiadiazol-5-yl-2,3-dihydro-1,3-benzoxazole-6-sulfonamide]
IC50 [1, 3]: 147 nM
ratio of Nav 1.5:Nav 1.7 potency, determined by PatchXpress measurement [2]: 360

C[C@H](c1ccccc1C#CCN1CCS(=O)(=O)CC1)n1c(=O)oc2cc(S(=O)(=O)Nc3ncns3)c(F)cc21 [Compound 17-5, 3-[(1R)-1-{2-[3-(1,1-dioxidothiomorpholin-4-yl)prop-1-yn-1-yl]phenyl}ethyl)-5-fluoro-2-oxo-N-1,2,4-thiadiazol-5-yl-2,3-dihydro-1,3-benzoxazole-6-sulfonamide]
IC50 [1, 3]: 122 nM
ratio of Nav 1.5:Nav 1.7 potency, determined by PatchXpress measurement [2]: 246

CCC(O)(C#Cc1ccccc1[C@@H](C)n1c(=O)oc2cc(S(=O)(=O)Nc3ncns3)c(F)cc21)CC [Compound 17-6, 3-{(1R)-1-[2-(3-ethyl-3-hydroxypent-1-yn-1-yl)phenyl]ethyl}-5-fluoro-2-oxo-N-1,2,4-thiadiazol-5-yl-2,3-dihydro-1,3-benzoxazole-6-sulfonamide]
IC50 [1, 3]: 104 nM
ratio of Nav 1.5:Nav 1.7 potency, determined by PatchXpress measurement [2]: 91

C[C@H](c1ccccc1C#C[C@@H](C)O)n1c(=O)oc2cc(S(=O)(=O)Nc3ncns3)c(F)cc21 [Compound 17-7, 5-fluoro-3-[(1R)-1-{2-[(3R)-3-hydroxybut-1-yn-1-yl]phenyl}ethyl]-2-oxo-N-1,2,4-thiadiazol-5-yl-2,3-dihydro-1,3-benzoxazole-6-sulfonamide]
IC50 [1, 3]: 78 nM
ratio of Nav 1.5:Nav 1.7 potency, determined by PatchXpress measurement [2]: 1257

C[C@H](c1ccccc1C#Cc1cncn1C)n1c(=O)oc2cc(S(=O)(=O)Nc3ncns3)c(F)cc21 [Compound 17-8, 5-fluoro-3-[(1R)-1-{2-[(1-methyl-1H-imidazol-5-yl)ethynyl]phenyl}ethyl]-2-oxo-N-1,2,4-thiadiazol-5-yl-2,3-dihydro-1,3-benzoxazole-6-sulfonamide]
IC50 [1, 3]: 64 nM
ratio of Nav 1.5:Nav 1.7 potency, determined by PatchXpress measurement [2]: 27

C[C@H](c1ccccc1C#CCO)n1c(=O)oc2cc(S(=O)(=O)Nc3ncns3)c(F)cc21 [Compound 17-9, 5-fluoro-3-{(1R)-1-[2-(3-hydroxyprop-1-yn-1-yl)phenyl]ethyl}-2-oxo-N-1,2,4-thiadiazol-5-yl-2,3-dihydro-1,3-benzoxazole-6-sulfonamide]
IC50 [1, 3]: 58 nM
ratio of Nav 1.5:Nav 1.7 potency, determined by PatchXpress measurement [2]: 45
